Source: patent US20240226030A1, “COMPOSITIONS AND METHODS USING AT LEAST ONE OF INOSITOL, ERYTHRITOL OR SORBITOL TO ENHANCE GROWTH OF FAECALIBACTERIUM PRAUSNITZII” (SOCIÉTÉ DES PRODUITS NESTLE S.A., priority 2021, published 2024)

Tests used:
[1] = tested on: F. prausnitzii; assay: Model organism test of sugar alcohols as energy substrate for F. prausnitzii; type: cell-based, Faecalibacterium prausnitzii; conditions: FIGS. 4A and 4B
Excerpt: Using a model organism, the effect of inositol and sorbitol as energy substrate for F. prausnitzii was confirmed (FIGS. 4A and 4B), but not xylitol. Thus, all sugar alcohols cannot be assumed to have the same effect on F. prausnitzii.

[2] = tested on: F. prausnitzii; assay: Growth of F. prausnitzii with added vitamins, glucose as substrate; type: cell-based, Faecalibacterium prausnitzii; conditions: FIG. 6D

OC[C@@H](O)[C@@H](O)[C@H](O)[C@@H](O)CO [sorbitol]
effect as energy substrate for F. prausnitzii [1]: confirmed

OC[C@@H](O)[C@H](O)[C@@H](O)CO [xylitol, reference compound]
effect as energy substrate for F. prausnitzii [1]: not

O[C@H]1[C@H](O)[C@@H](O)[C@H](O)[C@@H](O)[C@H]1O [inositol]
effect as energy substrate for F. prausnitzii [1]: confirmed

OC[C@@H](O)[C@@H](O)CO [erythritol]
effect as energy substrate for F. prausnitzii [1]: confirmed

Vitamin B12
growth of F. prausnitzii compared with control [2]: more than control
